{
  "source": "patent US20260199377A1",
  "about": "“CANNABINOIDS FOR TREATING ESSENTIAL TREMOR IN PATIENTS” (Jazz Pharmaceuticals Research UK Limited, priority 2022, published 2026)",
  "key": {"[1]": {"tested_on": "Harmaline-Induced Essential Tremor in Rats", "experiment": "Harmaline-induced essential tremor in rats (observational score, Tremor Monitor waveforms)", "format": "in vivo, rats (male; Sprague Dawley)", "conditions": "for tremor, as indexed by OS, TI, and MPP: overall conclusion, propranolol 20 mg/kg", "procedure": "Subjects: Naïve rats (114; male; Sprague Dawley; aged 6-9 weeks; weight 190-369 g) were obtained from Charles River UK and acclimated to the testing room in home cages (standard caging; housed in groups of 4) up to 7 days following arrival at the test facility, with free access to food (Certified Rodent CR 14% Protein Rodent Diet, LabDiet® 5CR4) and water on a 12 h/12 h light/dark cycle from arrival (lights on at 7:00 AM). All subjects were weighed at the beginning of the study and assigned to treatment groups.\nTremor Monitor™ (“TM”): A TM from San Diego Instruments was obtained to measure movement waveforms (i.e., amplitude (“A”) (dBV) as a function of frequency (“f”) (Hz)) (threshold 10 dBV).\nNBX/Harmaline Experimental Group (number of subjects (“n”)=36 (12 at each dose of NBX)): Subjects were habituated to the TM for 2×5 minutes (with a 20 minute gap between the two 5 minute periods). The next day, 5.2, 10.4, or 20.8 mg/kg (total THC and CBD) NBX was administered p.o. (oral gavage) in sesame oil to the subjects at 2 mL/kg. 100 minutes after the NBX was administered, 10 mg/kg of harmaline was administered i.p. in water to the subjects at 5 mL/kg. 20, 40, and 60 minutes after the harmaline was administered to the subjects, the subjects were observationally scored in their home cages on a scale from 0 to 4 (wherein scores (“observational scores” (“OS”)) of 0, 1, 2, 3, and 4 correspond, as summarized in TABLE A below, to “No tremor”, “Occasional tremor affecting only head and neck”, “Intermittent tremor affecting whole body”, “Persistent tremor affecting whole body and tail”, and “Severe tremor rendering subject unable to stand”, respectively) and, immediately thereafter, movement waveforms of the subjects were measured with the TM for 5 minutes each.\nThereafter, the administration of the harmaline and NBX (“acute treatment”) was continued once per day until the harmaline and NBX had been administered for 10 days (“sub-chronic treatment”). 20, 40, and 60 minutes after the final administration of the NBX and harmaline, the subjects were again observationally scored on the scale described (and summarized in TABLE A) above and movement waveforms of the subjects were again measured with the TM for 5 minutes each.\nPropranolol/Harmaline Comparison Group (n=12): The Experimental Group protocol was repeated, except for administering, instead of NBX, 20 mg/kg of propranolol i.p. 30 minutes before the harmaline was administered (as the maximum effect of propranolol can be observed approximately 30 minutes after administration).\nVehicle/Harmaline Control Group (n=12): The Experimental Group protocol was repeated, except for administering, instead of NBX, sesame oil (vehicle) at 2 mL/kg.\nCalculations and Statistical Analysis: For each movement waveform measured, the following values were calculated: average amplitude (“A”) (average power) for the range of frequency (“f”) from\nTremor Index (“TI”=AP2−AP1); and Motion Power Percentage (“MPP” (%)=AP2/(AP1+AP2)×100). Further, for each subject, the following values were calculated: total number of tremor events (10 dBV threshold; sum of 20-, 40-, and 60-minute data); total average length of one tremor event (average of 20-, 40-, and 60-minute data); and total cumulative time of tremor events (sum of 20-, 40-, and 60-minute data), wherein “total” refers to combination of the 20-minute data, the 40-minute data, and the 60-minute data (e.g., “total cumulative time of tremor events” means total of the cumulative time of tremor events for the 20-minute data, the cumulative time of tremor events for the 40-minute data, and the cumulative time of tremor events for the 60-minute data). For the 20-, 40-, and 60-minute data independently, OS, MPP, and TI were analyzed by Kruskal-Wallis followed by Dunn's multiple comparison test. […]"}, "rats": {"tested_on": "rats", "experiment": "Propranolol/Vehicle and NBX/Vehicle control groups (saline instead of harmaline), tremor measures", "format": "in vivo, rats (male; Sprague Dawley)", "conditions": "vs Vehicle/Vehicle group; for Tremor Index (TI) / observational score (OS): propranolol 20 mg/kg i.p. or NBX 5.2, 10.4, 20.8 mg/kg p.o.; for Motion Power Percentage (MPP): except for NBX at 20.8 mg/kg total THC and CBD at the 20 minute timepoint", "procedure": "Propranolol/Vehicle Control Group (n=12): The Propranolol/Harmaline Comparison Group protocol was repeated, except for administering, instead of harmaline, saline (vehicle) at 5 mL/kg.\nVehicle/Vehicle Control Group (n=6): The Experimental Group protocol was repeated, except for administering, instead of NBX, sesame oil (vehicle) at 2 mL/kg, and, instead of harmaline, saline (vehicle) at 5 mL/kg.\nNBX/Vehicle Control Group (n=36 (12 at each dose)): The Experimental Group protocol was repeated, except for administering, instead of harmaline, saline (vehicle) at 5 mL/kg.\nTremor Index (“TI”=AP2−AP1); and Motion Power Percentage (“MPP” (%)=AP2/(AP1+AP2)×100). Further, for each subject, the following values were calculated: total number of tremor events (10 dBV threshold; sum of 20-, 40-, and 60-minute data); total average length of one tremor event (average of 20-, 40-, and 60-minute data); and total cumulative time of tremor events (sum of 20-, 40-, and 60-minute data), wherein “total” refers to combination of the 20-minute data, the 40-minute data, and the 60-minute data (e.g., “total cumulative time of tremor events” means total of the cumulative time of tremor events for the 20-minute data, the cumulative time of tremor events for the 40-minute data, and the cumulative time of tremor events for the 60-minute data). For the 20-, 40-, and 60-minute data independently, OS, MPP, and TI were analyzed by Kruskal-Wallis followed by Dunn's multiple comparison test. For the 20-, 40-, and 60-minuted data combined, the total number of tremor events, total average length (duration) of one tremor event, and total cumulative time spent in tremor were analyzed by Kruskal-Wallis followed by a Tukey's multiple comparison test. Results were considered significant for p<0.05. Outlier removal was not applied due to non-responders in the harmaline group which could not be identified in the treatment groups."}, "[2]": {"conditions": "harmaline 10 mg/kg i.p., acute treatment, all timepoints, Vehicle/Harmaline vs Vehicle/Vehicle group"}, "[3]": {"conditions": "harmaline 10 mg/kg i.p., acute treatment, sum of 20-, 40-, 60-minute data, Vehicle/Harmaline vs Vehicle/Vehicle group"}, "[4]": {"conditions": "harmaline 10 mg/kg i.p., sub-chronic treatment, all timepoints, Vehicle/Harmaline vs Vehicle/Vehicle group"}, "[5]": {"conditions": "harmaline 10 mg/kg i.p., sub-chronic treatment, sum of 20-, 40-, 60-minute data, Vehicle/Harmaline vs Vehicle/Vehicle group"}, "[6]": {"conditions": "acute treatment, propranolol 20 mg/kg i.p., harmaline 10 mg/kg i.p., all timepoints (20, 40, 60 min), vs Vehicle/Harmaline group"}, "[7]": {"conditions": "sub-chronic treatment (10 days), propranolol 20 mg/kg i.p., harmaline 10 mg/kg i.p., all timepoints, vs Vehicle/Harmaline group"}, "[8]": {"conditions": "sub-chronic treatment, propranolol 20 mg/kg i.p., harmaline 10 mg/kg i.p., vs Vehicle/Harmaline group"}},
  "note": "Where a name gives a salt, the structure may show the parent alone.",
  "data": [
    {"compound": "COc1ccc2c3c([nH]c2c1)C(C)=NCC3", "note": "[harmaline, Harmaline]", "values": [
      {"measurement": "observational score (OS)", "setting": "[1]; harmaline 10 mg/kg i.p., acute treatment, 20, 40 and 60 min post-dose, Vehicle/Harmaline vs Vehicle/Vehicle group", "result": "significantly increased"},
      {"measurement": "Motion Power Percentage (MPP)", "setting": "[1]; [2]", "result": "significantly increased"},
      {"measurement": "Tremor Index (TI)", "setting": "[1]; [2]", "result": "significantly increased"},
      {"measurement": "total average length of one tremor event", "setting": "[1]; harmaline 10 mg/kg i.p., acute treatment, average of 20-, 40-, 60-minute data, Vehicle/Harmaline vs Vehicle/Vehicle group", "result": "significantly increased"},
      {"measurement": "total cumulative time of tremor events", "setting": "[1]; [3]", "result": "significantly increased"},
      {"measurement": "total number of tremor events", "setting": "[1]; [3]", "result": "significantly increased"},
      {"measurement": "observational score (OS)", "setting": "[1]; harmaline 10 mg/kg i.p., sub-chronic treatment, 20, 40 and 60 min post-dose, Vehicle/Harmaline vs Vehicle/Vehicle group", "result": "significantly increased"},
      {"measurement": "Motion Power Percentage (MPP)", "setting": "[1]; [4]", "result": "significantly increased"},
      {"measurement": "Tremor Index (TI)", "setting": "[1]; [4]", "result": "significantly increased"},
      {"measurement": "total average length of one tremor event", "setting": "[1]; harmaline 10 mg/kg i.p., sub-chronic treatment, average of 20-, 40-, 60-minute data, Vehicle/Harmaline vs Vehicle/Vehicle group", "result": "significantly increased"},
      {"measurement": "total cumulative time of tremor events", "setting": "[1]; [5]", "result": "significantly increased"},
      {"measurement": "total number of tremor events", "setting": "[1]; [5]", "result": "significantly increased"}
    ]},
    {"compound": "CC(C)NCC(O)COc1cccc2ccccc12", "note": "(stereo not drawn) [propranolol, Propranolol hydrochloride]", "values": [
      {"measurement": "observational score (OS)", "setting": "[1]; acute treatment, propranolol 20 mg/kg i.p. 30 min before harmaline 10 mg/kg i.p., 20, 40 and 60 min post-dose, vs Vehicle/Harmaline group", "result": "significantly decreased"},
      {"measurement": "Motion Power Percentage (MPP)", "setting": "[1]; [6]", "result": "significantly decreased"},
      {"measurement": "Tremor Index (TI)", "setting": "[1]; [6]", "result": "significantly decreased"},
      {"measurement": "total number of tremor events", "setting": "[1]; acute treatment, propranolol 20 mg/kg i.p., harmaline 10 mg/kg i.p., vs Vehicle/Harmaline group, the only one of the three event measures significantly reduced", "result": "significantly reduced"},
      {"measurement": "tremor, as indexed by OS, TI, and MPP", "setting": "[1]; acutely", "result": "significantly reduced"},
      {"measurement": "tremor, as indexed by OS, TI, and MPP", "setting": "[1]; sub-chronically", "result": "significantly reduced"},
      {"measurement": "Motion Power Percentage (MPP)", "setting": "[1]; [7]", "result": "significantly decreased"},
      {"measurement": "Tremor Index (TI)", "setting": "[1]; [7]", "result": "significantly decreased"},
      {"measurement": "observational score (OS)", "setting": "[1]; sub-chronic treatment (once daily, 10 days), propranolol 20 mg/kg i.p., harmaline 10 mg/kg i.p., 20, 40 and 60 min, vs Vehicle/Harmaline group", "result": "significantly decreased"},
      {"measurement": "total average length of one tremor event", "setting": "[1]; [8]", "result": "significantly reduced"},
      {"measurement": "total cumulative time of tremor events", "setting": "[1]; [8]", "result": "significantly reduced"},
      {"measurement": "total number of tremor events", "setting": "[1]; [8]", "result": "significantly reduced"},
      {"measurement": "Tremor Index (TI)", "setting": "rats; acute treatment", "result": "no significant effect"},
      {"measurement": "observational score (OS)", "setting": "rats; acute treatment", "result": "no significant effect"},
      {"measurement": "Motion Power Percentage (MPP)", "setting": "rats; acute treatment", "result": "no significant effect"},
      {"measurement": "Tremor Index (TI)", "setting": "rats; sub-chronic treatment", "result": "no significant effect"},
      {"measurement": "observational score (OS)", "setting": "rats; sub-chronic treatment", "result": "no significant effect"},
      {"measurement": "Motion Power Percentage (MPP)", "setting": "rats; sub-chronic treatment", "result": "no significant effect"}
    ]}
  ]
}
